Results as given in a melting point compilation (Tetko et al.; mined from patent text by program, amines drawn as free bases though some values may be those of a salt).

| SMILES | melting point [°C] |
| --- | --- |
| COc1cc2cc([N+](=O)[O-])c(OCc3ccccc3)cc2oc1=O | 226 to 228 |
| CC(=O)NC[C@H]1CN(c2ccc(N3CCN(CCN4CCOCC4)CC3)c(F)c2)C(=O)O1 | 150 to 152 |
| CCOC(=O)C(C)=C(CC)NC(=O)Nc1cc(C(=O)OC(C)C)c(Cl)cc1F | 132 to 133 |
| O=C1CCCC2=C1C(c1ccc(S(=O)(=O)c3ccccc3)cc1)C1=C(CCCC1=O)N2 | 260 |
| Cc1cc(C(=S)N(C)C)ncc1C(c1cc(F)ccc1F)S(=O)(=O)c1ccc(F)cc1 (configuration not stated) | 161 to 164 |
| CC(CN1CC(=O)N(CN2CCOCC2)C(=O)C1)N1CC(=O)NC(=O)C1 (configuration not stated) | 162 to 165 |
| CSc1nsc(-c2ccccc2)n1 | 57.1 |
| COc1ccc(CC(=O)NCCc2ccccc2)cc1OC | 123 to 124 |
| O=C(c1ccc(OCCN2CCCCC2)cc1)c1c(-c2ccc(O)cc2)ccc2ccccc12 | 167 to 170 |
| Nc1ncnc2c1c(-c1ccc(Oc3ccccc3)cc1)cn2C1CCC(=O)CC1 | 252 to 254 |
| C[C@@H]1[C@@H](S(=O)(=O)c2ccccc2)[C@@H]2O[C@@H]2C[C@@H]1O | 148 |
| CCCc1nc(C(=O)CC)c(C)[nH]1 | 63 to 67 |
| Cc1c(NC(=O)c2ccc(-c3ccc(F)cc3)nc2)ccc2cc(CN3CCCC3)cnc12 | 207 to 209 |
| COCCCCCCCCCCCC(=O)O | 45 to 47 |
| COCc1oc(-c2nn(Cc3ccccc3F)c3ccccc23)nc1C | 86 to 88 |
| CC(c1cc2cc(F)ccc2s1)N(O)C(N)=O (configuration not stated) | 149 to 153 |
| COC(=O)CN(C)C(=O)CC(Cc1cccc2ccccc12)C(=O)NC(Cc1c[nH]cn1)C(=O)NC(CC(C)C)C(O)C(=O)OC (mixture of isomers) | 75 to 79 |
| Cc1nc2ccccc2n1Cc1cc([N+](=O)[O-])ccc1O | > 260 |
| COc1cn(C)c(=O)c(N)n1 | 166 to 167 |
| C=CC(C)c1cc(C)c2c(c1)C(=O)CC2 (configuration not stated) | 88 to 92 |
| CCOc1nc(Nc2cccc(C(F)(F)F)c2)nc(N2CCN(C(=O)c3ccn(CC)n3)CC2)n1 | 145 to 148 |
| COc1cc(CO)ccc1OCc1nc(N2CCOCC2)sc1C | 121 to 122 |
| O=C1COc2cc(NC(=O)C(=O)N3CCC(Oc4ccccc4)CC3)ccc2N1 | 196 to 199 |

| SMILES | melting point [°C] |
| --- | --- |
| CC(C)(C)OC(=O)N1C2C=CC(C2)N1CC(O)C(Cc1ccccc1)NC(=O)OCc1ccccc1 (mixture of isomers) | 111 to 113 |
| CC(C)=CCCOc1c(-c2ccc(S(N)(=O)=O)cc2)cnn(-c2ccc(F)c(F)c2)c1=O | 70 to 73 |
| CCOC(=O)c1cncc(C(=O)OCC)c1 | 42 to 44 |
| NC(=O)Nc1cccc(CO)c1 | 188 to 202 |
| COc1nc(SCc2ccccc2)ncc1Br | 48 to 49 |
| Cc1noc(NS(=O)(=O)c2ccccc2-c2ccc(-c3ncco3)cc2CN(C)C(=O)c2ccc(Cl)cc2Cl)c1C | 134 to 142 |
| CC(=O)N(O)Cc1ccc2c(c1)Cc1ccccc1-2 | 182 to 183 |
| CS(=O)(=O)c1ccc(Cl)cc1Cl | 71 |
| COc1cc2c(c(OC)c1/C=C/c1ccc(C=O)cc1)C(C)(C)CCC2(C)C | 108 |
| Cc1ncnn1-c1ccc(N)cc1 | 145 |
| O=C(O)CCCC(O)c1ccc(Cl)cc1 (configuration not stated) | 85 to 87 |
| CCCP(=O)(O)CCCN | 210 to 213 |
| Cc1nc(COc2cc(N)c(Cl)cc2C(=O)O)cs1 | 188 to 189 |
| CCCn1nc2c(-c3ccccc3)cccc2c1-c1ccc(OC)cc1 | 128 to 129 |
| Cc1ccccc1[PH](=O)c1ccccc1C | 91.3 |
| CC(C)C(=O)N1CCN(c2ccc(NC(=O)c3ccccn3)cc2Cl)CC1 | 156 to 158 |
| COc1ccc(C(N2CCN(c3ncccn3)CC2)N2CCCC2=O)cc1 (configuration not stated) | 166 to 170 |
| Cn1nc(-c2ccccc2SCc2ccccc2)oc1=O | 137 to 140 |
| O=C1Nc2cccnc2N(C(=O)CN2CCN(CCO)CC2)c2ccccc21 | 197 to 200 |
| CC(C)(C)OP(=O)(Cc1ccc(Br)cc1)OC(C)(C)C | 45 |
| COCOc1cc(Cl)ccc1-c1cc(-c2cccc([N+](=O)[O-])c2)c(C#N)c(NC(=O)c2ccco2)n1 | 154 to 155 |
| COC(=O)[C@H](Cc1ccc(OCCNC(=O)OC(C)(C)C)cc1)NC(=O)OCc1ccccc1 | 89 to 91 |
| COC(=O)c1nc(-c2ccc(CF)cc2)cc(N)c1Cl | 95 to 97 |

| SMILES | melting point [°C] |
| --- | --- |
| CNC(=O)[C@H](O)C(C)(C)C | 60 to 62 |
| CCOC(=O)CCCn1c(Nc2cnc(OC)cc2C)nc2c(Cl)ccc(C(CC)CC)c21 | 140 to 142 |
| Cc1cc(C=NO)ccc1C(=O)NCc1ccccn1 | 160 to 161 |
| CC1(C)CCC(C)(C)c2cc(NC(=O)c3ccccc3)ccc21 | 146 to 148 |
| O=C1Cc2c(cc3ccccc3c2Br)C(c2ccccc2Cl)N1 (configuration not stated) | 256 to 257 |
| O=C1C2C3CCC(C3)C2C(=O)C1[N+](=O)[O-] (configuration not stated) | 167 |
| CN1CCN(c2ccc(N)cc2C(F)(F)F)CC1 | 121 to 123 |
| CCOC(=O)C(Cc1ccc(C(F)(F)F)cc1)C(=O)c1cccc(F)c1 (configuration not stated) | 50 to 51 |
| Cc1oc(C)c(C(=O)OC2CC(C)(C)NC(C)(C)C2)c1C | 54 to 58 |
| CN(C)CCCC#Cc1cnc(N)nc1 | 126 to 127 |
| Cc1ccccc1C(=O)Nc1ccc(C(=O)N2CCCCc3sccc32)cc1 | 181 to 182 |
| CNC(=O)C(NC(=O)c1ccc(F)cc1C(F)(F)F)C(O)C(F)(F)F (configuration not stated) | 212 |
| CC(C)n1nc(-c2c(-c3ccccc3)nn3ccc(N4CCCC4=O)cc23)ccc1=O | 266 to 267 |
| O=C(O)CCC(=NO)c1ccc(-n2cccn2)cc1 | 128 to 130 |
| O=C1Nc2ccc(Cl)cc2C(C#CC2CC2)(C(F)(F)F)CN1C1CC1 (configuration not stated) | 195 to 196 |
| CC(C)(C)OC(=O)N1C[C@H](O)C[C@H]1C(=O)OC(c1ccccc1)c1ccccc1 | 93 to 95 |
| COc1ccc(C=Cc2c(Cl)cncc2Cl)c2c1OC1(CCCC1)O2 | 100 to 101 |
| COc1ccc2c(c1)C(=O)Cc1c(cccc1C(=O)O)S2 | 157 to 160 |
| COc1ccc(-c2n[nH]cc2C(=O)N2CCOCC2)cc1OC | 122 |
| Cn1cncc1C(O)(c1ccc(Cl)cc1)c1ccc2c(c1)C(c1cccc(Cl)c1)=NCC(=O)N2 (configuration not stated) | 200 |
| COc1cc(C=O)c(CCC(=O)O)c(C=O)c1O | 164 to 166 |
| CC1CCN(c2c(C#N)c3c(c4c2Cc2ccccc2-4)-c2ccccc2C3)CC1 | 166 to 168 |

Now from value to molecule:

| melting point [°C] | SMILES |
| --- | --- |
| 149 to 151 | O=S1(=O)NCN(C2CC2)c2c(F)cc(F)cc21 |
| 166 to 168 | Cc1c(Sc2ccc(Cl)cc2)nn(-c2ccc3c(c2)OCO3)c(=O)c1C#N |
| 205 to 209 | COc1cc(OC)nc(NC(=O)NS(=O)(=O)c2nn(C)c3cccc(F)c23)n1 |
| 78 to 80 | CC(CC(=O)O)CC(=O)NCCc1ccccc1 (configuration not stated) |
| 104 | COC(=O)C=Cc1ccc(OCC2CCCCC2)cc1 |
| 81 to 83 | CCCCCCCCCCCCCCCCCCOc1ccc(OCc2ccccc2)c(C(=O)N(CC(=O)O)CC(=O)O)c1 |
| 158 to 159 | CCn1c(=O)c2c(nc(/C=C/c3ccc(OCCCCN=[N+]=[N-])cc3)n2C)n(CC)c1=O |
| 222 to 224 | COC(=O)c1cc(C(=O)O)cc(-c2cc(Cl)ccc2Cl)c1 |
| 270 to 273 | O=C(O)c1cccc(-c2ncn(-c3ccc(N4CCCC4=O)cc3)n2)c1 |
| 40 to 43 | ClC1(CBr)C=CC=CN1 (configuration not stated) |
| 290 to 294 | Oc1cc2c3cc(O)c(O)cc3n(Cc3cccnc3)c2cc1O |
| 163 | CCOC(=O)c1cc2ccc(Oc3ccc([N+](=O)[O-])cc3)cc2oc1=O |
| 239 to 241 | Cn1nc(N)c2sc3c(Cl)cccc3c21 |
| 145 to 146 | Cc1cn(C2CC(O)C(COC(=O)Oc3ccc([N+](=O)[O-])cc3)O2)c(=O)[nH]c1=O (configuration not stated) |
| 266 to 267 | O=C(CCc1ccccc1)Nc1cc(C(=O)O)ccn1 |
| 63 to 64 | COc1cc2c(cc1OC)C(=Cc1ccccc1[N+](=O)[O-])C(=O)CC2 |
| < 30 | O=C[C@H]1CC[C@H](c2ccc(F)cc2)CC1 |

| melting point [°C] | SMILES |
| --- | --- |
| 98 to 100 | CCCC/C=C\CCCCOc1cccc(C(N)=O)c1 |
| 216 to 220 | CON1C=C2N=NC3=C(N2C1)N(c1ccccn1)CC(C)=C3 |
| 175 to 177 | O=C(NN1CCCCC1)NS(=O)(=O)C=Cc1ccccc1 |
| 51 | CC1(C)CCSc2ccc(Br)cc21 |
| 184 to 186 | CS(=O)(=O)c1ccc(-c2nc3cc(C4=CCN(S(=O)(=O)CCCO)CC4)ccc3o2)c(F)c1 |
| 294 to 295 | CC(=O)Nc1nc(/C=C/c2ccc([N+](=O)[O-])cc2)c(-c2ccc(S(C)(=O)=O)cc2)s1 |
| 151 to 153 | Cc1cc2c(C)cc(-c3ccccc3Cl)nc2nc1-c1ccccc1 |
| 181 to 194 | FC(F)(F)c1ccc(-c2cc3ncnc(Nc4ccc5[nH]ccc5c4)c3s2)cc1 |
| 278 | Cc1nc(C)c(-c2[nH]nc3c2C(=O)c2c(NC(=O)NN4CCN(C)CC4)cccc2-3)s1 |
| 141 to 143 | CC(C)[C@H](NC(=O)OCc1ccc2ccccc2n1)C(=O)N[C@@H](Cc1ccccc1)C[C@H](O)[C@H](Cc1ccccc1)NC(=O)OCc1cccnc1 |
| 197 to 200 | NCc1cn(C2CCc3ccccc3C2)c(=S)[nH]1 (configuration not stated) |
| 222 to 224 | O=C(c1ccc(Nc2ccnc3cc(C(F)(F)F)ccc23)cc1)N1CCN(c2c(Cl)c(Cl)nc(Cl)c2Cl)CC1 |
| 173 to 174 | O=C(NCc1ccc(Cl)cc1)c1cn2c3c(cc(CCCO)cc3c1=O)OCC2(CO)CO |
| 176 to 182 | CC(C)c1ccc(-n2c(CC(=O)O)c(C(=O)O)c3cc(Oc4cccc(Cl)c4)ccc32)cc1 |
| 93 | O=C1c2cccc([N+](=O)[O-])c2C(=O)N1CCO |
| 193 to 195 | CC(=O)NC[C@H]1CN(c2ccc(C3CCN(c4nnc(C)s4)CC3)c(F)c2)C(=O)O1 |
| 163 to 164 | Cc1nccn1-c1nc(-c2ccc(Cl)cc2)c(CCC#N)o1 |
